One may read the GI50 as the concentration that inhibits growth by half.

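Protocol summary: plate cells (96-well), add compound at 5 concentrations, incubate 48 h, interpolate endpoints linearly. Abbreviation: GI50, concentration required for 50% inhibition of growth.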 Calls of active or inactive are those of the source. No stated cut-off is given here; in the data, active = GI50 up to about 1.1 µM and inactive = higher.

Among the test systems are UACC-62; HL-60; OVCAR-4; SF-295; OVCAR-3; NCI-H226; U-251; HCT-15; OVCAR-5; UACC-257; CAKI-1; UO-31; ACHN; CCRF-CEM; SN12C; TK-10; SF-268; Malme-3M.
Holding throughout (experiment): DTP human tumour cell line panel, 48 h

For the compound `COC(=O)C1=C(C(=O)OC)N(C(C)C)[C@H]2C(C(=O)OC)=C(C(=O)OC)N(C(C)C)[C@@H]12`, the GI50 in the experiment with UACC-62 is > 100 µM (inactive); in the experiment on HL-60, 61.5 µM (inactive); with OVCAR-4, > 100 µM (inactive); in the experiment on SF-295, > 100 µM (inactive); in the experiment with OVCAR-3, 95.1 µM (inactive); in the experiment with NCI-H226, > 100 µM (inactive). Further, the GI50 in the experiment with U-251 was > 100 µM (inactive); with HCT-15, over 100 µM; in the experiment on OVCAR-5, > 100 µM (inactive); with UACC-257 it was > 100 µM (inactive); with CAKI-1, > 100 µM (inactive); in the experiment on UO-31 it was > 100 µM (inactive). Further, the GI50 in the experiment with ACHN, with CCRF-CEM, in the experiment on SN12C, in the experiment on TK-10, with SF-268 and in the experiment on Malme-3M was > 100 µM (inactive) throughout.
Regarding `CN1C(=O)CC(c2cccc(C3CC(=O)N(C)C3=O)n2)C1=O` (configuration not stated), the GI50 in the experiment with UACC-62, in the experiment with HL-60, in the experiment with OVCAR-4, with SF-295, with OVCAR-3 and in the experiment with NCI-H226 was > 100 µM (inactive) each time. The GI50 in the experiment on U-251 is > 100 µM (inactive); in the experiment with HCT-15, over 100 µM; with OVCAR-5, > 100 µM (inactive); with UACC-257 it was > 100 µM (inactive); in the experiment on CAKI-1, > 100 µM (inactive); in the experiment with UO-31, > 100 µM (inactive). In addition, the GI50 in the experiment with ACHN, in the experiment on CCRF-CEM, in the experiment with SN12C, in the experiment with TK-10, in the experiment with SF-268 and in the experiment with Malme-3M was > 100 µM (inactive) throughout.
Consider `CN1N=C2c3ccccc3OC(c3ccccc3)[C@H]2C1c1ccccc1` (some centres not stated), for which the GI50 was > 100 µM (inactive) in the experiment on UACC-62; 37.3 µM (inactive) in the experiment with HL-60; 85.1 µM (inactive) in the experiment with OVCAR-4; 90.4 µM (inactive) in the experiment on SF-295; > 100 µM (inactive) with OVCAR-3; > 100 µM (inactive) in the experiment on NCI-H226. Moreover, the GI50 in the experiment on U-251 is > 100 µM (inactive); in the experiment on HCT-15, 75 µM; with OVCAR-5 it was > 100 µM (inactive); in the experiment on UACC-257 it was 81.1 µM (inactive); in the experiment on UO-31 it was 61.1 µM (inactive); in the experiment on ACHN, > 100 µM (inactive). Besides, the GI50 with CCRF-CEM is 38.4 µM (inactive); in the experiment with SN12C, > 100 µM (inactive); with TK-10, > 100 µM (inactive); in the experiment with SF-268 it was > 100 µM (inactive); in the experiment with Malme-3M, 22.2 µM (inactive).
On to `O=C(O)CN(c1ccccc1)S(=O)(=O)c1ccc([N+](=O)[O-])cc1`, for which the GI50 with UACC-62, with HL-60, in the experiment with OVCAR-4, in the experiment on SF-295, with OVCAR-3 and in the experiment on NCI-H226 was > 100 µM (inactive) in each case. In addition, the GI50 was > 100 µM (inactive) in the experiment with U-251; over 100 µM with HCT-15; > 100 µM (inactive) with OVCAR-5; > 100 µM (inactive) in the experiment on UACC-257; > 100 µM (inactive) with CAKI-1; > 100 µM (inactive) with UO-31. Further, the GI50 with ACHN, in the experiment on CCRF-CEM, in the experiment on SN12C, in the experiment with TK-10 and in the experiment with Malme-3M was > 100 µM (inactive) in each case.
For the compound `CS(=O)(=O)OCCN1CCN(C(=O)c2cccc3c(Nc4ccc(S(=O)(=O)N=C(N)N)cc4)c4ccccc4nc23)CC1`, the GI50 in the experiment on UACC-62, in the experiment with HL-60, in the experiment on OVCAR-4, in the experiment on SF-295, in the experiment on OVCAR-3 and with NCI-H226 was > 100 µM (inactive) throughout. In addition, the GI50 in the experiment with U-251 is > 100 µM (inactive); in the experiment with HCT-15, over 100 µM; in the experiment on OVCAR-5, > 100 µM (inactive); in the experiment on UACC-257, > 100 µM (inactive); in the experiment with CAKI-1, > 100 µM (inactive); in the experiment on UO-31, > 100 µM (inactive). The GI50 in the experiment on ACHN, in the experiment on CCRF-CEM, in the experiment on SN12C, in the experiment with TK-10, in the experiment with SF-268 and in the experiment with Malme-3M was > 100 µM (inactive) in each case.
With `O=C(CC1(O)C(=O)Nc2c(Cl)ccc(Cl)c21)c1ccc2ccccc2c1` (configuration not stated), the GI50 in the experiment on UACC-62 is 3.24 µM (inactive); with HL-60 it was 1.73 µM (inactive); in the experiment on OVCAR-4 it was 2.29 µM (inactive); in the experiment on SF-295, 4.92 µM (inactive); with OVCAR-3 it was 4.17 µM (inactive); in the experiment on NCI-H226 it was 19.2 µM (inactive). In addition, the GI50 in the experiment on U-251 was 4.76 µM (inactive); with HCT-15, 6.19 µM; in the experiment on OVCAR-5, 17.3 µM (inactive); in the experiment with UACC-257, 12.2 µM (inactive); in the experiment with CAKI-1, 4.46 µM (inactive); in the experiment on UO-31 it was 18.1 µM (inactive). Besides, the GI50 with ACHN was 12.9 µM (inactive); with CCRF-CEM, 3.62 µM (inactive); in the experiment on SN12C, 16.4 µM (inactive); with TK-10, 16.2 µM (inactive); in the experiment on SF-268, 14.5 µM (inactive); in the experiment on Malme-3M, 12.5 µM (inactive).
Turning to `O=C1CNC(=O)c2[nH]cnc2N1`, the GI50 in the experiment with UACC-62, in the experiment on HL-60, with OVCAR-4, in the experiment on SF-295, in the experiment on OVCAR-3 and in the experiment on NCI-H226 was > 100 µM (inactive) each time. The GI50 in the experiment with U-251 was > 100 µM (inactive); in the experiment on HCT-15 it was over 100 µM; in the experiment on OVCAR-5, > 100 µM (inactive); in the experiment with UO-31, > 100 µM (inactive); in the experiment on ACHN, > 100 µM (inactive); with CCRF-CEM, > 100 µM (inactive). The GI50 with SN12C, in the experiment on TK-10, with SF-268 and in the experiment on Malme-3M was > 100 µM (inactive) each time.
`C=C(C)C1CC=C(C)C(O)([C@@]2(O)C[C@H](C(=C)C)CC=C2C)C1` (some centres not stated): the GI50 is 19.8 µM (inactive) with UACC-62; 23.1 µM (inactive) in the experiment on HL-60; 19 µM (inactive) in the experiment on OVCAR-4; 18.9 µM (inactive) in the experiment with SF-295; 13.4 µM (inactive) in the experiment with OVCAR-3; > 10 µM (inactive) with NCI-H226. In addition, the GI50 in the experiment on U-251 was 16.7 µM (inactive); with HCT-15, over 10 µM; in the experiment on OVCAR-5 it was 24.5 µM (inactive); with UACC-257 it was 19.3 µM (inactive); in the experiment on CAKI-1, 13.5 µM (inactive); with UO-31 it was 28.4 µM (inactive). Besides, the GI50 in the experiment with ACHN was 20.3 µM (inactive); with CCRF-CEM, 20.1 µM (inactive); in the experiment on SN12C, 18.3 µM (inactive); with TK-10, 33.3 µM (inactive); with SF-268, 29.9 µM (inactive); with Malme-3M it was 22.8 µM (inactive).
On to `CC(=O)NNc1nc(C)c(C(/C=C/c2ccc(/C=C/C(=N\NC(=O)c3ccncc3)c3sc(NNC(C)=O)nc3C)cc2)=N/NC(=O)c2ccncc2)s1`, for which the GI50 in the experiment with UACC-62, in the experiment on HL-60, with SF-295, in the experiment with OVCAR-3, in the experiment on NCI-H226 and with U-251 was > 100 µM (inactive) each time. The GI50 with HCT-15 was over 100 µM; in the experiment on OVCAR-5, > 100 µM (inactive); in the experiment on UACC-257, 44.5 µM (inactive); in the experiment with CAKI-1 it was > 100 µM (inactive); in the experiment with UO-31, > 100 µM (inactive); with ACHN, > 100 µM (inactive). In addition, the GI50 with CCRF-CEM, in the experiment on SN12C, in the experiment on TK-10, with SF-268 and with Malme-3M was > 100 µM (inactive) each time.
Regarding `O=c1ncccn1[C@@H]1O[C@H](CO)[C@H](O)C1O` (some centres not stated), the GI50 is > 99.5 µM (inactive) with UACC-62; 47.3 µM (inactive) in the experiment on HL-60; > 100 µM (inactive) in the experiment on OVCAR-4; > 100 µM (inactive) with SF-295; > 100 µM (inactive) with OVCAR-3; > 100 µM (inactive) with NCI-H226. Also, the GI50 is > 100 µM (inactive) with U-251; over 93.1 µM in the experiment with HCT-15; > 100 µM (inactive) in the experiment with OVCAR-5; > 100 µM (inactive) with UACC-257; 38.8 µM (inactive) with CAKI-1; > 100 µM (inactive) in the experiment on UO-31. Moreover, the GI50 in the experiment on ACHN is > 100 µM (inactive); in the experiment with CCRF-CEM it was 49 µM (inactive); in the experiment on SN12C it was > 77.1 µM (inactive); with TK-10, > 100 µM (inactive); with SF-268, 71.8 µM (inactive); with Malme-3M it was > 100 µM (inactive).
Take `COC1=CC(=O)c2ccc(C(C)C)cc2C1(C)C1=NC(C)(C)CO1` (configuration not stated): the GI50 in the experiment with UACC-62 was > 100 µM (inactive); in the experiment with HL-60, 63 µM (inactive); with OVCAR-4, > 100 µM (inactive); with SF-295 it was > 100 µM (inactive); in the experiment with OVCAR-3 it was > 100 µM (inactive); in the experiment on NCI-H226 it was > 100 µM (inactive). The GI50 with U-251 is > 100 µM (inactive); in the experiment with HCT-15 it was over 100 µM; with UACC-257, 65.8 µM (inactive); in the experiment on CAKI-1 it was > 100 µM (inactive); in the experiment with UO-31, > 100 µM (inactive); with ACHN it was > 100 µM (inactive). The GI50 with CCRF-CEM, in the experiment on SN12C, with TK-10, in the experiment with SF-268 and with Malme-3M was > 100 µM (inactive) throughout.
